What was measured:
Assay in all cases: relative viability (nuclei count vs DMSO), 5 days (fraction); higher = more cells survive
NCI-H1734 = test system: NCI-H1734
In short: (§1)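 Nuclei were stained with Hoechst during a one-step fixation (final 0.05% Triton X-100, 1% formaldehyde, 1 ug/ml Hoechst) carried out 5 days after dosing, then counted on 4× images. The cells, lung cancer lines in 1536-well plates, had been dosed by pin tool the day after seeding with one drug alone or a fixed anchor-drug dose plus five library-drug doses (not always all listed) in √10 steps. Relative viability is the nuclei count in treated wells divided by that in vehicle wells, and each value is the median of duplicate plates.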

LC-2-ad = test system: LC-2-ad
In short: as §1

BEN = test system: BEN
In short: as §1

NCI-H2170 = test system: NCI-H2170
In short: as §1

NCI-H1437 = test system: NCI-H1437
In short: as §1

HCC-366 = test system: HCC-366
In short: as §1

NCI-H596 = test system: NCI-H596
In short: as §1

NCI-H647 = test system: NCI-H647
In short: as §1

HCC-44 = test system: HCC-44
In short: as §1

NCI-H1792 = test system: NCI-H1792
In short: as §1

HARA = test system: HARA
In short: as §1

NCI-H1395 = test system: NCI-H1395
In short: as §1

HCC-827 = test system: HCC-827
In short: as §1

NCI-H661 = test system: NCI-H661
In short: as §1

NCI-H2009 = test system: NCI-H2009
In short: as §1

NCI-H2342 = test system: NCI-H2342
In short: as §1

LOU-NH91 = test system: LOU-NH91
In short: as §1

NCI-H2087 = test system: NCI-H2087
In short: as §1

NCI-H2405 = test system: NCI-H2405
In short: as §1

SK-MES-1 = test system: SK-MES-1
In short: as §1

NCI-H1355 = test system: NCI-H1355
In short: as §1

SK-LU-1 = test system: SK-LU-1
In short: as §1

EKVX = test system: EKVX
In short: as §1

NCI-H2228 = test system: NCI-H2228
In short: as §1

## COc1cc(N2CCC(C(N)=O)CC2)ccc1Nc1nc(N)c(Cl)c(Nc2ccccc2S(=O)(=O)C(C)C)n1 [HG-5-88-01] + Nc1nc2[nH]cc(CCc3ccc(C(=O)N[C@@H](CCC(=O)O)C(=O)O)cc3)c2c(=O)[nH]1 [Pemetrexed] (partner 0.2 µM)
NCI-H1734; first compound 0.04 µM
  relative viability: 0.398
NCI-H1734; first compound 0.1265 µM
  relative viability: 0.423
NCI-H1734; first compound 0.4 µM
  relative viability: 0.361
NCI-H1734; first compound 1.265 µM
  relative viability: 0.391
NCI-H1734; first compound 4 µM
  relative viability: 0.375
LC-2-ad; first compound 0.04 µM
  relative viability: 0.257
LC-2-ad; first compound 0.1265 µM
  relative viability: 0.257
LC-2-ad; first compound 0.4 µM
  relative viability: 0.259
LC-2-ad; first compound 1.265 µM
  relative viability: 0.275
LC-2-ad; first compound 4 µM
  relative viability: 0.267
BEN; first compound 0.04 µM
  relative viability: 0.76
BEN; first compound 0.1265 µM
  relative viability: 0.648
BEN; first compound 0.4 µM
  relative viability: 0.717
BEN; first compound 1.265 µM
  relative viability: 0.687
BEN; first compound 4 µM
  relative viability: 0.711
NCI-H2170; first compound 0.04 µM
  relative viability: 0.286
NCI-H2170; first compound 0.1265 µM
  relative viability: 0.28
NCI-H2170; first compound 0.4 µM
  relative viability: 0.261
NCI-H2170; first compound 1.265 µM
  relative viability: 0.257
NCI-H2170; first compound 4 µM
  relative viability: 0.249
NCI-H1437; first compound 0.04 µM
  relative viability: 0.296
NCI-H1437; first compound 0.1265 µM
  relative viability: 0.334
NCI-H1437; first compound 0.4 µM
  relative viability: 0.267
NCI-H1437; first compound 1.265 µM
  relative viability: 0.327
NCI-H1437; first compound 4 µM
  relative viability: 0.277
HCC-366; first compound 0.04 µM
  relative viability: 0.197
HCC-366; first compound 0.1265 µM
  relative viability: 0.146
HCC-366; first compound 0.4 µM
  relative viability: 0.113
HCC-366; first compound 1.265 µM
  relative viability: 0.237
HCC-366; first compound 4 µM
  relative viability: 0.287
NCI-H596; first compound 0.04 µM
  relative viability: 0.499
NCI-H596; first compound 0.1265 µM
  relative viability: 0.548
NCI-H596; first compound 0.4 µM
  relative viability: 0.478
NCI-H596; first compound 1.265 µM
  relative viability: 0.482
NCI-H596; first compound 4 µM
  relative viability: 0.441
NCI-H647; first compound 0.04 µM
  relative viability: 0.159
NCI-H647; first compound 0.1265 µM
  relative viability: 0.194
NCI-H647; first compound 1.265 µM
  relative viability: 0.184
NCI-H647; first compound 4 µM
  relative viability: 0.157
HCC-44; first compound 0.04 µM
  relative viability: 0.596
HCC-44; first compound 0.1265 µM
  relative viability: 0.662
HCC-44; first compound 0.4 µM
  relative viability: 0.538
HCC-44; first compound 1.265 µM
  relative viability: 0.699
HCC-44; first compound 4 µM
  relative viability: 0.69
NCI-H1792; first compound 0.04 µM
  relative viability: 0.769
NCI-H1792; first compound 0.1265 µM
  relative viability: 0.825
NCI-H1792; first compound 0.4 µM
  relative viability: 0.751
NCI-H1792; first compound 1.265 µM
  relative viability: 0.832
NCI-H1792; first compound 4 µM
  relative viability: 0.76
HARA; first compound 0.04 µM
  relative viability: 0.221
HARA; first compound 0.1265 µM
  relative viability: 0.225
HARA; first compound 0.4 µM
  relative viability: 0.199
HARA; first compound 1.265 µM
  relative viability: 0.24
HARA; first compound 4 µM
  relative viability: 0.201
NCI-H1395; first compound 0.04 µM
  relative viability: 0.825
NCI-H1395; first compound 0.1265 µM
  relative viability: 0.923
NCI-H1395; first compound 0.4 µM
  relative viability: 0.751
NCI-H1395; first compound 1.265 µM
  relative viability: 1.05
NCI-H1395; first compound 4 µM
  relative viability: 0.753
HCC-827; first compound 0.04 µM
  relative viability: 0.24
HCC-827; first compound 0.1265 µM
  relative viability: 0.262
HCC-827; first compound 0.4 µM
  relative viability: 0.216
HCC-827; first compound 1.265 µM
  relative viability: 0.141
HCC-827; first compound 4 µM
  relative viability: 0.193
NCI-H661; first compound 0.04 µM
  relative viability: 0.909
NCI-H661; first compound 0.1265 µM
  relative viability: 0.931
NCI-H661; first compound 0.4 µM
  relative viability: 0.883
NCI-H661; first compound 1.265 µM
  relative viability: 0.974
NCI-H661; first compound 4 µM
  relative viability: 0.965
NCI-H2009; first compound 0.04 µM
  relative viability: 1.01
NCI-H2009; first compound 0.1265 µM
  relative viability: 1.03
NCI-H2009; first compound 0.4 µM
  relative viability: 0.959
NCI-H2009; first compound 1.265 µM
  relative viability: 0.963
NCI-H2009; first compound 4 µM
  relative viability: 0.975
NCI-H2342; first compound 0.04 µM
  relative viability: 0.664
NCI-H2342; first compound 0.1265 µM
  relative viability: 0.769
NCI-H2342; first compound 0.4 µM
  relative viability: 0.704
NCI-H2342; first compound 4 µM
  relative viability: 0.856
LOU-NH91; first compound 0.04 µM
  relative viability: 0.38
LOU-NH91; first compound 0.1265 µM
  relative viability: 0.44
LOU-NH91; first compound 0.4 µM
  relative viability: 0.376
LOU-NH91; first compound 1.265 µM
  relative viability: 0.456
LOU-NH91; first compound 4 µM
  relative viability: 0.522
NCI-H2087; first compound 0.04 µM
  relative viability: 0.664
NCI-H2087; first compound 0.1265 µM
  relative viability: 0.689
NCI-H2087; first compound 0.4 µM
  relative viability: 0.67
NCI-H2087; first compound 1.265 µM
  relative viability: 0.651
NCI-H2087; first compound 4 µM
  relative viability: 0.715
NCI-H2405; first compound 0.04 µM
  relative viability: 0.965
NCI-H2405; first compound 0.1265 µM
  relative viability: 1.16
NCI-H2405; first compound 0.4 µM
  relative viability: 0.973
NCI-H2405; first compound 1.265 µM
  relative viability: 0.852
NCI-H2405; first compound 4 µM
  relative viability: 0.954
SK-MES-1; first compound 0.04 µM
  relative viability: 0.922
SK-MES-1; first compound 0.1265 µM
  relative viability: 0.923
SK-MES-1; first compound 0.4 µM
  relative viability: 0.827
SK-MES-1; first compound 1.265 µM
  relative viability: 0.853
SK-MES-1; first compound 4 µM
  relative viability: 1
NCI-H1355; first compound 0.04 µM
  relative viability: 1.11
NCI-H1355; first compound 0.1265 µM
  relative viability: 1.03
NCI-H1355; first compound 0.4 µM
  relative viability: 0.726
NCI-H1355; first compound 1.265 µM
  relative viability: 1.04
NCI-H1355; first compound 4 µM
  relative viability: 0.685
SK-LU-1; first compound 0.04 µM
  relative viability: 0.919
SK-LU-1; first compound 0.1265 µM
  relative viability: 0.956
SK-LU-1; first compound 0.4 µM
  relative viability: 0.925
SK-LU-1; first compound 1.265 µM
  relative viability: 1.01
SK-LU-1; first compound 4 µM
  relative viability: 0.866
EKVX; first compound 0.04 µM
  relative viability: 0.468
EKVX; first compound 0.1265 µM
  relative viability: 0.407
EKVX; first compound 0.4 µM
  relative viability: 0.301
EKVX; first compound 4 µM
  relative viability: 0.352
NCI-H2228; first compound 0.04 µM
  relative viability: 0.372
NCI-H2228; first compound 0.1265 µM
  relative viability: 0.237
NCI-H2228; first compound 0.4 µM
  relative viability: 0.237
NCI-H2228; first compound 1.265 µM
  relative viability: 0.26
NCI-H2228; first compound 4 µM
  relative viability: 0.183
